Assay [1] concerns the target T1, Corticotropin-releasing factor receptor 1 (Rattus norvegicus) (UniProt P35353).
T1 sequence (whole entry): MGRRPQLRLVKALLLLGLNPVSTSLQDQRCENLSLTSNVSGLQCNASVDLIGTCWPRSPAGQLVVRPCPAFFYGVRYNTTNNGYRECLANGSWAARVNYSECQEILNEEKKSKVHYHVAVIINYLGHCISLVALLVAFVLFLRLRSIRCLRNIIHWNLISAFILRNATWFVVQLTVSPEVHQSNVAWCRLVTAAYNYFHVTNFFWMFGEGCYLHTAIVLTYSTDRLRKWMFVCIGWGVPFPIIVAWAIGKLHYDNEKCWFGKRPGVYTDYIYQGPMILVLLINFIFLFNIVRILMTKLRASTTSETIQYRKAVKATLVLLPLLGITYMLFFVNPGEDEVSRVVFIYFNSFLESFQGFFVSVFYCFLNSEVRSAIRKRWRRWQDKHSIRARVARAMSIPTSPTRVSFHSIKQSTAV
Briefly: Intrinsic activity in ACTH release assay as percent CRF response. It counts as functional.

Assay [2] addresses T1, Corticotropin-releasing factor receptor 1 (Rattus norvegicus). Briefly: Relative antagonistic potency in vitro measuring alteration of CRF-induced release of ACTH by rat anterior pituitary cells in culture. Particulars: Pituitary gland cell. It counts as functional, cell-based.

This note sets out measurements from ChEMBL document CHEMBL1127508, “Conformationally restricted competitive antagonists of human/rat corticotropin-releasing factor” (J Med Chem, 1994).

`CCCC[C@H](NC(=O)[C@@H]1CC(=O)NCCC[C@H](NC(=O)[C@H](CC(C)C)NC(=O)[C@H](CC(C)C)NC(=O)[C@H](Cc2c[nH]cn2)NC(=O)[C@H](N)Cc2ccccc2)C(=O)N[C@@H](CCC(=O)O)C(=O)N[C@@H](C(C)C)C(=O)N[C@@H](CC(C)C)C(=O)N1)C(=O)N[C@@H](C)C(=O)N[C@@H](CCCN=C(N)N)C(=O)N[C@@H](C)C(=O)N[C@@H](CCC(=O)O)C(=O)N[C@@H](CCC(N)=O)C(=O)N[C@@H](CC(C)C)C(=O)N[C@@H](C)C(=O)N[C@@H](CCC(N)=O)C(=O)N[C@@H](CCC(N)=O)C(=O)N[C@@H](C)C(=O)N[C@@H](Cc1c[nH]cn1)C(=O)N[C@@H](CO)C(=O)N[C@@H](CC(N)=O)C(=O)N[C@@H](CCCN=C(N)N)C(=O)N[C@@H](CCCCN)C(=O)N[C@@H](CC(C)C)C(=O)N[C@@H](CCCC)C(=O)N[C@@H](CCC(=O)O)C(=O)N[C@H](C(=O)N[C@H](C(=O)C(N)=O)[C@@H](C)CC)[C@@H](C)CC`: the Intrinsic activity in assay [1] amounted to 2. Also, the Activity in assay [2] came to 0.001.

Molecule `CCCC[C@H](NC(=O)[C@H](CC(C)C)NC(=O)[C@H](CCCCN)NC(=O)[C@H](CCCN=C(N)N)NC(=O)[C@H](CC(N)=O)NC(=O)[C@H](CO)NC(=O)[C@H](Cc1c[nH]cn1)NC(=O)[C@H](C)NC(=O)[C@H](CCC(N)=O)NC(=O)[C@H](CCC(N)=O)NC(=O)[C@H](C)NC(=O)[C@H](CC(C)C)NC(=O)[C@H](CCC(N)=O)NC(=O)[C@H](CCC(=O)O)NC(=O)[C@H](C)NC(=O)[C@H](CCCN=C(N)N)NC(=O)[C@H](C)NC(=O)[C@H](CCCC)NC(=O)[C@H]1CCC(=O)NCCCC[C@H](NC(=O)[C@H](CCCN=C(N)N)NC(=O)[C@H](CC(C)C)NC(=O)[C@H](CC(C)C)NC(=O)[C@H](Cc2c[nH]cn2)NC(=O)[C@H](N)Cc2ccccc2)C(=O)N[C@@H](C(C)C)C(=O)N[C@@H](CC(C)C)C(=O)N1)C(=O)N[C@@H](CCC(=O)O)C(=O)N[C@H](C(=O)N[C@H](C(=O)C(N)=O)[C@@H](C)CC)[C@@H](C)CC` showed an Intrinsic activity in assay [1] of 23. The Activity in assay [2] was < 0.001.

In the case of `CCCC[C@H](NC(=O)[C@H](CC(C)C)NC(=O)[C@H](CCCCN)NC(=O)[C@H](CCCN=C(N)N)NC(=O)[C@H](CC(N)=O)NC(=O)[C@H](CO)NC(=O)[C@H](Cc1c[nH]cn1)NC(=O)[C@H](C)NC(=O)[C@H](CCC(N)=O)NC(=O)[C@H](CCC(N)=O)NC(=O)[C@H](C)NC(=O)[C@H](CC(C)C)NC(=O)[C@H](CCC(N)=O)NC(=O)[C@H](CCC(=O)O)NC(=O)[C@H](C)NC(=O)[C@H](CCCN=C(N)N)NC(=O)[C@H](C)NC(=O)[C@H](CCCC)NC(=O)[C@H]1CC(=O)NCCC[C@H](NC(=O)[C@H](CC(C)C)NC(=O)[C@H](CC(C)C)NC(=O)[C@H](Cc2c[nH]cn2)NC(=O)[C@H](N)Cc2ccccc2)C(=O)N[C@@H](CCC(=O)O)C(=O)N[C@@H](C(C)C)C(=O)N[C@@H](CC(C)C)C(=O)N1)C(=O)N[C@@H](CCC(=O)O)C(=O)N[C@H](C(=O)N[C@H](C(=O)C(N)=O)[C@@H](C)CC)[C@@H](C)CC`, the Activity in assay [2] was 0.006.

For `CCCC[C@H](NC(=O)[C@@H]1CCC(=O)NCCCC[C@H](NC(=O)[C@H](CCCN=C(N)N)NC(=O)[C@H](CC(C)C)NC(=O)[C@H](CC(C)C)NC(=O)[C@H](Cc2c[nH]cn2)NC(=O)[C@H](N)Cc2ccccc2)C(=O)N[C@@H](C(C)C)C(=O)N[C@@H](CC(C)C)C(=O)N1)C(=O)N[C@@H](C)C(=O)N[C@@H](CCCN=C(N)N)C(=O)N[C@@H](C)C(=O)N[C@@H](CCC(=O)O)C(=O)N[C@@H](CCC(N)=O)C(=O)N[C@@H](CC(C)C)C(=O)N[C@@H](C)C(=O)N[C@@H](CCC(N)=O)C(=O)N[C@@H](CCC(N)=O)C(=O)N[C@@H](C)C(=O)N[C@@H](Cc1c[nH]cn1)C(=O)N[C@@H](CO)C(=O)N[C@@H](CC(N)=O)C(=O)N[C@@H](CCCN=C(N)N)C(=O)N[C@@H](CCCCN)C(=O)N[C@@H](CC(C)C)C(=O)N[C@@H](CCCC)C(=O)N[C@@H](CCC(=O)O)C(=O)N[C@H](C(=O)N[C@H](C(=O)C(N)=O)[C@@H](C)CC)[C@@H](C)CC`, the Intrinsic activity in assay [1] turned out to be 3. Moreover, the Activity in assay [2] worked out at 0.02.
